Data on six compounds can be found in patent publication US20110297235A1, “USE OF TRIARYLAMINE DERIVATIVES AS HOLE-CONDUCTING MATERIALS IN ORGANIC SOLAR CELLS AND ORGANIC SOLAR CELLS CONTAINING SAID TRIARYLAMINE DERIVATIVES” (BASF SE, priority 2009, published 2011).

Converted amounts (≈) assume the structure as drawn. A value given as a limit tells only on which side of the number the result lay.

For data set [1] the following is noted: in vivo; cited from earlier work.
Data set [2] in a line: Glass transition temperature Tg and morphology M by means of DSC. Type of data set: physicochemical.
Data set [3] is described as follows: Decomposition temperature Td by means of TGA. The data set is classed as physicochemical.
Another data set can be described thus: physchem. As to conditions: organic solvent or mixture.

For orientation: LD50 means the dose expected to kill half of the subjects tested. For orientation: solubility means how much of the substance goes into solution per volume.

As for `Clc1ccccc1` [chlorobenzene], in data set [1], the LD50 was 2900 mg/kg.

As for `COc1ccc(N(c2ccc(OC)cc2)c2ccc3c(c2)C(C)(C)c2cc(N(c4ccc(OC)cc4)c4ccc(-c5ccc(N(c6ccc(OC)cc6)c6ccc7c(c6)C(C)(C)c6cc(N(c8ccc(OC)cc8)c8ccc(OC)cc8)ccc6-7)cc5)cc4)ccc2-3)cc1` [ID518], in data set [2], the “glass transition temperature Tg” value came to 150 °C. Moreover, the “decomposition temperature Td” value in data set [3] amounted to 430 °C. In addition, the solubility in “physchem” (solubility L in chlorobenzene) was 400 to 800 mg/mL (≈ 324 to 647 mM); in the data set “physchem” (solubility in Ethyl acetate), greater than 400 mg/mL; in “physchem” (solubility in Tetrahydrofuran), 550 to 1100 mg/mL (≈ 445 to 890 mM); in “physchem” (solubility in Toluene), 160 to 240 mg/mL (≈ 129 to 194 mM).

On to `COc1ccc(N(c2ccc(OC)cc2)c2ccc(N(c3ccccc3)c3ccc(-c4ccc(N(c5ccccc5)c5ccc(N(c6ccc(OC)cc6)c6ccc(OC)cc6)cc5)cc4)cc3)cc2)cc1` [ID320], for which the “glass transition temperature Tg” value in data set [2] came to 96 °C. For the same compound, in data set [3], the “decomposition temperature Td” value came out at 450 °C. Besides, the solubility in “physchem” (solubility L in chlorobenzene) is 760 to 1000 mg/mL (≈ 806 to 1060 mM); in “physchem” (solubility in Ethyl acetate), 140 mg/mL (≈ 148 mM); in “physchem” (solubility in Tetrahydrofuran), greater than 280 mg/mL; in “physchem” (solubility in Toluene), 280 mg/mL (≈ 297 mM).

Regarding `COc1ccc(N(c2ccc(OC)cc2)c2ccc(-c3ccc(N(c4ccccc4)c4ccc(-c5ccc(N(c6ccccc6)c6ccc(-c7ccc(N(c8ccc(OC)cc8)c8ccc(OC)cc8)cc7)cc6)cc5)cc4)cc3)cc2)cc1` [ID321], the “glass transition temperature Tg” value in data set [2] worked out at 143 °C. For the same compound, the “decomposition temperature Td” value in data set [3] turned out to be 460 °C. The solubility in “physchem” (solubility L in chlorobenzene) was 900 to 1150 mg/mL (≈ 822 to 1050 mM); in “physchem” (solubility in Ethyl acetate), 15 mg/mL (≈ 13.7 mM); in the data set “physchem” (solubility in Tetrahydrofuran), greater than 240 mg/mL; in the data set “physchem” (solubility in Toluene) it was greater than 100 mg/mL.

Consider `COc1ccc(N(c2ccc(OC)cc2)c2ccc(-c3ccc(N(c4ccc(OC)cc4)c4ccc5c(c4)C(C)(C)c4cc(N(c6ccc(OC)cc6)c6ccc(-c7ccc(N(c8ccc(OC)cc8)c8ccc(OC)cc8)cc7)cc6)ccc4-5)cc3)cc2)cc1` [ID447], for which the “glass transition temperature Tg” value in data set [2] is 137 °C. Also, in data set [3], the “decomposition temperature Td” value came out at 430 °C. The solubility in “physchem” (solubility L in chlorobenzene) is 900 to 1800 mg/mL (≈ 753 to 1510 mM); in “physchem” (solubility in Ethyl acetate), greater than 660 mg/mL; in “physchem” (solubility in Tetrahydrofuran), 750 to 1500 mg/mL (≈ 627 to 1250 mM); in “physchem” (solubility in Toluene), greater than 520 mg/mL.

For the compound `CCOc1ccc(N(c2ccc(C3=CCC(N(c4ccc(OC)cc4)c4ccc(-c5ccc(N(c6ccc(OC)cc6)c6ccc(-c7ccc(N(c8ccc(OCC)cc8)c8cccc9ccccc89)cc7)cc6)cc5)cc4)C=C3)cc2)c2cccc3ccccc23)cc1` (centres unmarked) [ID565], the “glass transition temperature Tg” value in data set [2] was determined as 143 °C. Further, in data set [3], the “decomposition temperature Td” value came to 450 °C. Besides, the solubility is greater than 900 mg/mL in “physchem” (solubility L in chlorobenzene); greater than 1000 mg/mL in the data set “physchem” (solubility in Anisole); less than 40 mg/mL in “physchem” (solubility in Ethyl acetate); greater than 850 mg/mL in “physchem” (solubility in Tetrahydrofuran); 400 to 800 mg/mL (≈ 326 to 653 mM) in “physchem” (solubility in Toluene).
